Reference: paper PMC6923474 (Scientific Reports, 2019)
“Also recorded” adds a separate entry of the source. Like-named read-outs stand apart in the source and are kept apart here.

Assays:
NMDA receptors (NMDARs) = assay: Whole-cell patch-clamp of NMDA-activated currents in primary cultures of cortical neurons; type: cell-based, rat
Procedure: All manipulations on animals were performed in accordance with the guide of the Federation for Laboratory Animal Science Associations and were approved by the Animal Care and Use Committees of Sechenov Institute. Briefly, 16 days pregnant Wistar rats (14 female rats used in this study, supplied by the Sechenov Institute Animal Facility) were placed in a plastic box connected to a CO2 tank by a tube and then sacrificed by 1 min CO2 inhalation. Fetuses were removed and then primary cultures of rat cortical neurons were prepared using conventional procedures as described earlier[27],[66]. Neurons were grown in Neurobasal culture medium supplemented with B-27 (Gibco-Invitrogen, UK) on glass coverslips coated with poly-D-lysine and were used for experiments after 10–15 days in culture[66],[67].
Whole-cell currents were recorded from cultured rat cortical neurons using a MultiClamp 700B patch-clamp amplifier with Digidata 1440 A controlled by pClamp v10.2 software (Molecular Devices). Recordings were 8-order low-pass filtered at 200 Hz and the acquisition rate was 20000 samples per second. Solution exchange was performed by means of a fast solution application system as described earlier. Unless otherwise specified, the external bathing solution contained (in mM): 140 NaCl; 2.8 KCl; 1.0 CaCl2; 10 HEPES, at pH 7.2–7.4, osmolarity 310 mOsm. The intrapipette solution contained (in mM): 120 CsF, 10 CsCl, 10 EGTA, and 10 HEPES, osmolarity 300 mOsm[14], with pH adjusted to 7.4 with CsOH. Patch pipettes of 2–4 MΩ were pulled from Sutter BF150-89-10 borosilicate capillaries. Experiments were performed at 23–25 °C. Under control conditions, neurons were voltage clamped at −70 mV. Data are reported without corrections for liquid junction potential, which was measured as −11 mV. To activate NMDARs, 100 µM NMDA and 30 µM glycine were co-applied. Some experiments were performed on neurons loaded with BAPTA. To load BAPTA, cortical neuron cultures were incubated in bathing solution containing 10 µM BAPTA-AM for 2 hours.
Whole-cell membrane currents activated by NMDA were measured at steady state. The fraction of blocked current was calculated as 1 − Ib/Ic, where Ic is the amplitude of current activated by agonists and Ib is the amplitude of current activated by agonists in the presence of blocker.
Amplitudes of currents measured in the presence of blocker were normalized to maximal current response in control (Ic). […]
The obtained values were fitted with the Woodhull equation[36]:6 IC50(Vm)=IC50(0mV)⋅exp(VmzδF/RT) where IC50(0 mV) and δ were set as free parameters. […] For Faraday constant, gas constant and room temperature of 25 °C the RT/F ≈ 25.7 mV.
The rise time of currents activated by the testing NMDA + Gly application in trapping channel block experiments was fit in ClampFit (pClamp, Axon Instruments) using the double exponential function:7 I=I1·exp(−t/τ1)+I2⋅exp(−t/τ2)−C where I1 and I2 are amplitudes of the exponential and τ1 and τ2 are time constants of the exponential and C equals I1 + I2 + Ib.

NMDARs = conditions: cited from earlier work
[1] = cited from earlier work
GluN1/GluN2A NMDARs = test system: GluN1/GluN2A NMDARs; set-up: method as in PMID 28877967; conditions: Ca2+-dependent manner; not GluN1/GluN2B receptors; cited from earlier work

Compound: CN(C)CCC=C1c2ccccc2CCc2ccccc21 [ATL, amitriptyline]
- concentrations showing voltage-dependent open-channel block of NMDARs (NMDA receptors (NMDARs)): > 70 µM
- decrease of IC50 per 1 mM increase of external [Ca2+] (NMDA receptors (NMDARs)): roughly 5 fold
- voltage dependence of block of NMDAR currents (NMDA receptors (NMDARs); 10 μM ATL, 1 mM Ca2+, −70 mV vs −30 mV): voltage dependence was not observed; also recorded: voltage-independent
- Ca2+ dependence of inhibition of NMDAR currents (NMDA receptors (NMDARs); 10 μM ATL, −70 mV, 2 mM vs 0.25 mM Ca2+): far more pronounced in 2 mM Ca^2+- than in 0.25 Ca^2+- containing media
- voltage dependence of block of NMDAR currents (NMDA receptors (NMDARs); 20 μM ATL, 2 mM Ca2+, −40 mV to +40 mV): did not find any voltage dependence
- effect on closed NMDARs (ATL applied prior to NMDA) (NMDA receptors (NMDARs); 100 μM ATL, 0.25 mM or 2 mM Ca2+, −70 mV): did not significantly affect currents activated by NMDA
- voltage dependence of block of NMDAR currents (NMDA receptors (NMDARs); 100 μM ATL, 1 mM Ca2+, −70 mV vs −30 mV): depended on membrane voltage; also recorded: voltage-dependent
- type of open-channel block (trapping protocol) (NMDA receptors (NMDARs); 200 µM ATL, 0.25 mM Ca2+, −70 mV): did not cause tail currents; also recorded: partial trapping
- τs, slow rise time constant of test current (ATL unblock) (NMDA receptors (NMDARs); 200 µM ATL, washout delay 0.5 s, −70 mV, 0.25 mM Ca2+): 11 ± 3.2 s
- τs, slow rise time constant of test current (ATL unblock) (NMDA receptors (NMDARs); 200 µM ATL, washout delay 1 s, −70 mV, 0.25 mM Ca2+): 13 ± 5.7 s
- τs, slow rise time constant of test current (ATL unblock) (NMDA receptors (NMDARs); 200 µM ATL, washout delay 2 s, −70 mV, 0.25 mM Ca2+): 13.2 ± 4.0 s
- τs, slow rise time constant of test current (ATL unblock) (NMDA receptors (NMDARs); 200 µM ATL, washout delay 4 s, −70 mV, 0.25 mM Ca2+): 15 ± 2.9 s
- voltage shift giving an e-fold change of IC50 (NMDA receptors (NMDARs); 0.25 mM Ca2+): 50 mV
- δ, fraction of the membrane electric field (Woodhull model) (NMDA receptors (NMDARs); 0.25 mM Ca2+, Eq. 6): 0.51
- fraction of ATL inhibition of NMDAR currents (1-Ib/Ic) (NMDA receptors (NMDARs); ATL 10 μM, −30 mV, [Ca2+] 0.25 mM): 0.12 ± 0.05
- fraction of ATL inhibition of NMDAR currents (1-Ib/Ic) (NMDA receptors (NMDARs); ATL 10 μM, −30 mV, [Ca2+] 2 mM): 0.30 ± 0.05
- fraction of ATL inhibition of NMDAR currents (1-Ib/Ic) (NMDA receptors (NMDARs); ATL 10 μM, −70 mV, [Ca2+] 0.25 mM): 0.13 ± 0.06
- fraction of ATL inhibition of NMDAR currents (1-Ib/Ic) (NMDA receptors (NMDARs); ATL 10 μM, −70 mV, [Ca2+] 2 mM): 0.42 ± 0.04
- fraction of ATL inhibition of NMDAR currents (1-Ib/Ic) (NMDA receptors (NMDARs); ATL 100 μM, −30 mV, [Ca2+] 0.25 mM): 0.40 ± 0.07
- fraction of ATL inhibition of NMDAR currents (1-Ib/Ic) (NMDA receptors (NMDARs); ATL 100 μM, −30 mV, [Ca2+] 2 mM): 0.35 ± 0.04
- fraction of ATL inhibition of NMDAR currents (1-Ib/Ic) (NMDA receptors (NMDARs); ATL 100 μM, −70 mV, [Ca2+] 0.25 mM): 0.79 ± 0.05
- fraction of ATL inhibition of NMDAR currents (1-Ib/Ic) (NMDA receptors (NMDARs); ATL 100 μM, −70 mV, [Ca2+] 2 mM): 0.79 ± 0.03
- IC50 (NMDA receptors (NMDARs); [Ca2+] 2–4 mM, read-out: IC50 values at physiological extracellular [Ca2+]): 0.7 to 7 µM
- fraction of ATL inhibition of NMDAR currents (1-Ib/Ic) (NMDA receptors (NMDARs); co-application of agonists and 100 μM ATL, −70 mV, [Ca2+] 0.25 mM): 0.85 ± 0.06
- fraction of ATL inhibition of NMDAR currents (1-Ib/Ic) (NMDA receptors (NMDARs); co-application of agonists and 100 μM ATL, −70 mV, [Ca2+] 2 mM): 0.85 ± 0.05
- IC50 (NMDA receptors (NMDARs); extrapolated to 0 mM Ca2+, −70 mV, read-out: IC50 at [Ca2+] = 0, single exponential approximation): 91 µM
- IC50 (NMDA receptors (NMDARs); extrapolated to 0 mV, 0.25 mM Ca2+, read-out: IC50 (0 mV), fit with Woodhull equation (Eq. 6)): 220 µM
- [Ca2+] shift giving an e-fold change of IC50 (b value), optimized (NMDA receptors (NMDARs); optimized by fitting all data with IC50(Vm,[Ca2+]) equation): 690 µM
- fraction of ATL inhibition of NMDAR currents (1-Ib/Ic) (NMDA receptors (NMDARs); pre-application of 100 μM ATL, −70 mV, [Ca2+] 0.25 mM): 0.12 ± 0.01
- fraction of ATL inhibition of NMDAR currents (1-Ib/Ic) (NMDA receptors (NMDARs); pre-application of 100 μM ATL, −70 mV, [Ca2+] 2 mM): 0.17 ± 0.03
- IC50 (NMDA receptors (NMDARs); read-out: IC50 for ATL inhibition of NMDAR currents, −30 mV, 0.25 mM Ca2+): 129 µM
- IC50 (NMDA receptors (NMDARs); read-out: IC50 for ATL inhibition of NMDAR currents, −70 mV, 0.25 mM Ca2+ in bathing solution, 100 μM NMDA + 30 μM Gly): 63 ± 9.3 µM
- IC50 (NMDA receptors (NMDARs); read-out: IC50 for ATL inhibition of NMDAR currents, −70 mV, 0.5 mM Ca2+, 100 μM NMDA + 30 μM Gly): 37.6 ± 7.7 µM
- IC50 (NMDA receptors (NMDARs); read-out: IC50 for ATL inhibition of NMDAR currents, −70 mV, 1 mM Ca2+, BAPTA-loaded neurons): 106 ± 9.5 µM
- IC50 (NMDA receptors (NMDARs); read-out: IC50 for ATL inhibition of NMDAR currents, −70 mV, 1 mM Ca2+, control (intact) neurons): 21.6 ± 8.7 µM
- IC50 (NMDA receptors (NMDARs); read-out: IC50 for ATL inhibition of NMDAR currents, −70 mV, 2 mM Ca2+): 4.9 ± 1 µM
- IC50 (NMDA receptors (NMDARs); read-out: IC50 for ATL inhibition of NMDAR currents, −70 mV, 4 mM Ca2+): 0.72 µM
- IC50 (NMDA receptors (NMDARs); read-out: IC50 for ATL inhibition of NMDAR currents, −100 mV, 0.25 mM Ca2+): 34.2 ± 9.8 µM
- [Ca2+] shift giving an e-fold change of IC50 (b value) (NMDA receptors (NMDARs); single exponential fit of IC50 vs [Ca2+], −70 mV): 630 µM
- Hill coefficient h (NMDA receptors (NMDARs); −70 mV, 0.25 mM Ca2+): 1.4 ± 0.1
- rate constant of binding (kon) (NMDA receptors (NMDARs); −70 mV, 0.25 mM Ca2+, Eq. 3): 1600 ± 90 M⁻¹ s⁻¹
- rate constant of dissociation (koff) (NMDA receptors (NMDARs); −70 mV, 0.25 mM Ca2+, Eq. 4): 0.204 ± 0.005 s⁻¹
- Kd (NMDA receptors (NMDARs); −70 mV, 0.25 mM Ca2+, Eq. 5, read-out: apparent equilibrium dissociation constant (Kd = koff/kon)): 128 ± 7.8 µM
- Hill coefficient h (NMDA receptors (NMDARs); −70 mV, 0.5 mM Ca2+): 1.5 ± 0.1
- Hill coefficient h (NMDA receptors (NMDARs); −70 mV, 1 mM Ca2+): 1.6 ± 0.5
- Hill coefficient h (NMDA receptors (NMDARs); −70 mV, 2 mM Ca2+): 1.2 ± 0.1
- Hill coefficient h (NMDA receptors (NMDARs); −70 mV, 4 mM Ca2+): 1.5 ± 0.2
- ATL concentrations required for the NMDAR channel block (NMDARs): 15 to 60 µM
- therapeutic window for ATL concentrations in the blood plasma ([1]; blood plasma): 0.3 to 1 µM
- ATL concentration in brain tissue ([1]; brain tissue): ≤ 10 µM

Compound: Br.Br.NCCCCCNCC12CC3CC(CC(C3)C1)C2 [IEM-1754, N-(tricyclo[3.3.1.13,7]dec-1-ylmethyl)-1,5-pentanediamine dihydrobromide]
- Ca2+ dependence of block of NMDA-activated currents (NMDA receptors (NMDARs); 10 μM IEM-1754, −70 mV, 2 mM vs 0.25 mM Ca2+): resistant to a 4-fold increase of [Ca^2+]

Compound: NC12CC3CC(CC(C3)C1)C2 [amantadine]
- δ, fraction of the membrane electric field (NMDARs): 0.72

Compound: CNC1(c2ccccc2Cl)CCCCC1=O (centres unmarked) [ketamine]
- sensitivity of NMDAR block to external [Ca2+] (NMDARs): no sensitivity to changes in external [Ca^2+]
- δ, fraction of the membrane electric field (NMDARs): 0.55

Compound: CC12CC3CC(C)(C1)CC(N)(C3)C2 [memantine]
- δ, fraction of the membrane electric field (NMDARs; by different estimates): 0.65–0.91
- effect on recovery from desensitization (GluN1/GluN2A NMDARs): slows the rate of recovery from desensitization of GluN1/GluN2A NMDARs
